{"source": "patent US8444858B2", "about": "“Control of development of biofilms in industrial process water” (A.Y. Laboratories Ltd., priority 2001, dated 2013)", "key": {"[1]": {"test_system": "mixed culture of slime-forming-bacteria which had been isolated from a paper machine", "assay": "Formation of biofilm on stainless steel coupons in a model system (viable counts in medium and on coupons)", "type": "cell-based", "protocol": "Formation of biofilm on stainless steel coupons in the presence or absence of an oxidizing biocide or a biofilm inhibiting substance was evaluated in the laboratory. The test system consisted of (a) three closed flasks each containing 20 L nutrient-rich medium (diluted three-fold from its recommended use concentration), (b) three closed cells containing stainless steel coupons hanging freely, and (c) three identical circulation pumps, each pump connected via plastic pipes to one of the flasks and to one of the cells. The system was placed in a thermostatic room at 35° C.\nAn innoculum containing a mixed culture of slime-forming-bacteria which had been isolated from a paper machine was added to each of the flasks. An oxidizer containing a 5 ppm mixture (expressed as total Cl2) of bromochlorodimethylhydantoin (an oxidizing biocide which is a source of HOBr and HOCl) (hereinafter “mixed halogens”) was added to the first flask once a day for the duration of the trial (4 days). […] The third flask served as a control for the two flasks treated with the oxidizing biocide or biofilm inhibiting substances. […] A diluted solution of sodium hypochlorite in deionized (DI) water (˜8000 ppm as total chlorine) was fed with one pump; a diluted solution of ammonium bromide (12500 ppm) was fed with the second pump. The two diluted solutions were synchronously mixed in a short glass pipe to form a pre-injection solution of biofilm inhibiting substance, using a pH meter to control and check the stability of the biofilm inhibiting substance formed. The biofilm inhibiting substance was fed to the test system immediately as it was produced.\nOn days 2 and 4, each closed cell was opened and 2 coupons were aseptically removed from each cell. At the same time samples of the circulating medium were taken as well. Sampling was conducted after feeding the daily slug dose of biocide.\nEach sample of medium was serially 10-fold diluted in sterile saline solution and plated in molten agar. Each coupon was thoroughly rinsed to remove any adhered particles, aseptically scraped, and the material removed by scraping was quantitatively dispersed in saline solution, vortexed, serially 10-fold diluted and plated in molten agar. Viable counts of microorganisms were taken after 48 h of incubation at 35° C. Viable counts of cells in the medium are presented as colony forming units (cfu) per ml; viable counts on the coupon surfaces are presented as cfu/cm^2."}, "catalase (Merck)": {"test_system": "catalase (Merck)", "assay": "Inactivation of catalase, residual H2O2 laboratory test", "type": "biochemical", "protocol": "Freshly prepared biofilm inhibiting substance was added to the appropriate flasks containing diluted catalase at a pre-defined feed rate. The contents of the containers were mixed for 60 minutes at room temperature prior to addition of H2O2 (to a final H2O2 concentration of 3.5 g/l). After addition of the H2O2, the mixture was allowed to mix for 30 minutes at room temperature, at which point H2O2 residues were measured in each flask in accordance with the Dr. Lange Cuvette Test LCW 058, measured with LASA 20 (based on Jander/Blasius: Lehrbach der Analytischen and Praparative Anorganischen Chemie, as described in the Handbook of Photometrical Operation Analysis (October 1997)).\nSodium hypochlorite was diluted in DI water to a final concentration of 6000 ppm expressed as total chlorine. Ammonium bromide solution (equimolar to 1.1 mole of the diluted sodium hypochlorite solution, 10% excess on a molar basis) and ammonium chloride solution (equimolar to 1.1 mole of the diluted hypochlorite solution, 10% excess on a molar basis) were prepared. The diluted hypochlorite (50 ml) was added dropwise to 50 ml of the appropriate ammonium salt while the pH was constantly measured. The biofilm inhibiting substance concentration in the produced stock solution was immediately measured and the biofilm inhibiting substance at the appropriate feed level was immediately added to the test flasks."}, "[2]": {"test_system": "planktonic microorganisms", "protocol": "(§1) The reaction pH was Maintained at 9.8-10.0. The Production process was controlled to ensure synchronous metering of the two chemicals, continuous mixing at the predetermined molar ratio and reproducible production of a stable biofilm inhibiting substance stock solution for the duration of the trial and longer. […] After 850 minutes the dosing rate was reduced to 85 g/ton expressed as total Cl2 by feeding the biofilm inhibiting substance semi-continuously. Various parameters were monitored during start-up of the trial: Residual biofilm inhibiting substance was measured (using a Hach pocket colorimeter, total Cl2, based on the DPD method adapted from Standard Methods for Examination of Waste and Waste Water). Residual hydrogen peroxide was measured using either LASA 20 with the LCW 085 method, based on the method of Jander/Blasius, Lehrbuch der Analytischen and Praparative Anorganischen Chemie, as described in the Handbook of Photometrical Operation Analysis by Dr. Lange for the LASA 20, October 1997 (in cases of high concentration), or Merck Test Strips (0.5-25 ppm). When necessary, samples were diluted with DI water.\n(§2) The activity of H2O2-degrading enzymes in the process water was measured according to the following procedure: a commercial solution of H2O2 was diluted with DI water to a final concentration of 100 g/l water (10%). One ml of the diluted H2O2 solution was added to 9 ml of a sample taken from the treated de-inking process water to form a final feed rate of 10 g/l H2O2. The combined sample was incubated at room temperature for 15 minutes, at which time residual H2O2 was measured. Hydrogen peroxide diluted in DI water served as a control. […] Adenosine triphosphate (ATP) measurements in Table 6 are based on the following process: during the change from ATP to Adenosine monophosphate (AMP) in the presence of luciferin and luciferase, a defined quantity of light is emitted per ATP molecule. This emitted light is measured by a photometer. The results are given in relative terms and are thus relative and not absolute (RLU=relative light unit). The values can be correlated with microbial activity in the sense that for high viable counts, a high ATP measurement is obtained, and vice versa."}, "H2O2-degrading enzymes": {"test_system": "H2O2-degrading enzymes", "protocol": "as §1, §2"}, "[3]": {"settings": "time 100 min, continuous feed 170 g/ton as total Cl2"}, "[4]": {"settings": "time 240 min, continuous feed 170 g/ton as total Cl2"}, "[5]": {"settings": "time 850 min, continuous feed 170 g/ton as total Cl2"}, "[6]": {"settings": "time 1500 min, semi-continuous feed 85 g/ton as total Cl2 since 850 min"}}, "note": "Read-outs that look alike come from different tables or passages of the source. Marks after values point to notes of the source that are not given here.", "data": [{"substance": "bromide activated chloramine [Fuzzicide BAC]", "values": [{"measurement": "state of coupons", "setting": "[1]; after 2 days", "result": "remained clean"}, {"measurement": "state of coupons", "setting": "[1]; after 4 days", "result": "remained clean"}, {"measurement": "control of planktonic microorganisms", "setting": "[1]; medium sample after four days, within detection limits", "result": "complete control of planktonic microorganisms"}, {"measurement": "Viable Counts After 2 Days, medium", "setting": "[1]; planktonic cells in circulating medium, day 2, daily slug dose (Mixed Halogens 5 ppm, Fuzzicide BAC […] expressed as Cl2), 35° C.", "result": "1 × 10^6 cfu/ml"}, {"measurement": "Viable Counts After 4 Days, medium", "setting": "[1]; planktonic cells in circulating medium, day 4, daily slug dose (Mixed Halogens 5 ppm, Fuzzicide BAC […] expressed as Cl2)", "result": "<100* cfu/ml"}, {"measurement": "Viable Counts After 2 Days, coupon surfaces", "setting": "[1]; stainless steel coupons, day 2, daily slug dose (Mixed Halogens 5 ppm, Fuzzicide BAC […] expressed as Cl2)", "result": "<27* cfu/cm^2"}, {"measurement": "Viable Counts After 4 Days, coupon surfaces", "setting": "[1]; stainless steel coupons, day 4, daily slug dose (Mixed Halogens 5 ppm, Fuzzicide BAC […] expressed as Cl2)", "result": "<27* Cfu/cm^2"}, {"measurement": "Residual H2O2 concentration, % of 3.5% g/l", "setting": "catalase (Merck); BIS 8.1 ppm as total chlorine, catalase 26 units/ml, 60 min preincubation, 30 min after H2O2", "result": "21.4 % of 3.5% g/l"}, {"measurement": "Residual H2O2 concentration, % of 3.5% g/l", "setting": "catalase (Merck); BIS 60 ppm as total chlorine, catalase 0 units/ml (no enzyme)", "result": "100 % of 3.5% g/l"}, {"measurement": "Residual H2O2 concentration, % of 3.5% g/l", "setting": "catalase (Merck); BIS 60 ppm as total chlorine, catalase 26 units/ml", "result": "100 % of 3.5% g/l"}, {"measurement": "Residual H2O2 concentration, % of 3.5% g/l", "setting": "catalase (Merck); BIS 140 ppm as total chlorine, catalase 26 units/ml", "result": "100 % of 3.5% g/l"}, {"measurement": "ATP (RLU)", "setting": "[2]; time 0 min (start of dosing, baseline)", "result": 132276, "unit": "RLU"}, {"measurement": "ATP (RLU)", "setting": "[2]; [3]", "result": 6340, "unit": "RLU"}, {"measurement": "ATP (RLU)", "setting": "[2]; [4]", "result": 2861, "unit": "RLU"}, {"measurement": "ATP (RLU)", "setting": "[2]; [5]", "result": 535, "unit": "RLU"}, {"measurement": "ATP (RLU)", "setting": "[2]; [6]", "result": 3568, "unit": "RLU"}, {"measurement": "Reduction in Catalase Activity, as % of initial H2O2 concentration", "setting": "H2O2-degrading enzymes; time 0 min (start of dosing, baseline), 10 g/l H2O2 added to sample, 15 min", "result": 37.6, "unit": "%"}, {"measurement": "Reduction in Catalase Activity, as % of initial H2O2 concentration", "setting": "H2O2-degrading enzymes; [3]", "result": 17.8, "unit": "%"}, {"measurement": "Reduction in Catalase Activity, as % of initial H2O2 concentration", "setting": "H2O2-degrading enzymes; [4]", "result": 54.7, "unit": "%"}, {"measurement": "Reduction in Catalase Activity, as % of initial H2O2 concentration", "setting": "H2O2-degrading enzymes; [5]", "result": 92, "unit": "%"}, {"measurement": "Reduction in Catalase Activity, as % of initial H2O2 concentration", "setting": "H2O2-degrading enzymes; [6]", "result": 135.1, "unit": "%"}]}]}
